Consider two molecules from patent US10967069B2, “Bio-orthogonal drug activation” (TAGWORKS PHARMACEUTICALS B.V., priority 2011, dated 2021).

Data set [1] in a line: Hydrolytic stability tests of tetrazines (UV, decrease of absorption at 525 nm). In kind it is physicochemical. Conditions: PBS buffer, 20° C. The text has this: This solution was filtered and, the decrease of the absorption band at 525 nm was monitored using UV spectroscopy.
A short description of data set [2]: Reactivity of tetrazines towards trans-cyclooct-4-ene-1-ol (axial isomer), competition experiment. Particulars: reference tetrazine 5; acetonitrile/water. Here is the method:
A competition experiment was performed to determine the reactivity ratio of a specific tetrazine and 3-(5-acetamido-2-pyridyl)-6-(2-pyridyl)-1,2,4,5-tetrazine (5) (that was chosen as the reference tetrazine), in the inverse-electron demand Diels-Alder reaction with trans-cyclooct-4-ene-1-ol (“minor” isomer with OH in axial position, see: Whitham et al. J. Chem. Soc. (C), 1971, 883-896)).
To acetonitrile (0.100 mL) was added 5 μL of a solution of the specific tetrazine in DMSO (25 mM) and 5 μL of a solution of the reference tetrazine in DMSO (25 mM). This mixture was diluted with water (0.9 mL), and the absolute amounts of both tetrazines was determined by HPLC-MS/PDA analysis. Subsequently, a solution of trans-cyclooct-4-ene-1-ol (axial isomer) in DMSO (25 μL 2.5 mM) was slowly added, and the mixture was stirred for 5 min. Again, the absolute amounts of both tetrazines was determined by HPLC-MS/PDA analysis, and conversions for both tetrazines was calculated. From these conversions, the reactivity ratio (R=k2,TCO/k2,Ref) of both tetrazines was calculated using the mathematical procedure from Ingold and Shaw (J. Chem. Soc., 1927, 2918-2926).

Data set [3] in a line: Stability of trans-cyclooctene derivatives in PBS (HPLC-MS). The data set is classed as physicochemical. Particulars: PBS buffer, 20° C., in the dark, estimation.
Method: 10 μL of a solution of the specific trans-cyclooctene derivative in dioxane (25 mM) was diluted with PBS buffer (3 mL), and this solution was stored at 20° C. in the dark. The fate of the TCO compound was monitored by HPLC-MS analysis, and an estimation of the half-life time was made.

The half-life is how long it takes for the measured level to halve.

Each structure is given as a SMILES string.

Regarding `CCCCNC(=O)c1ccc(-c2nnc(-c3ncccn3)nn2)nc1`, the half-life at 83 µM in data set [1] is 25.2 min. Further, the “Reactivity ratio (R = k2,TZ/k2,Ref)” value in data set [2] is reported as 2. In the case of `COc1cccc2c1C(=O)c1c(O)c3c(c(O)c1C2=O)C[C@@](O)(C(=O)CO)CC3OC1CC(NC(=O)OC2/C=C/CCCCC2)[C@H](O)C(C)O1` (stereo partly drawn), the half-life at 83 µM in data set [3] was above 20 days.
